US20240016874A1, “COMPOSITIONS AND METHODS FOR PREVENTING AND TREATING CORONAVIRUSES” (priority 2020, published 2024)

Tested on: SARS-CoV-2-PP (614G, Delta, UK, Brazil variants) infecting ACE2 expression cells
Type: cell-based

Row | SMILES | difference of effect between variants | effect on variants when combined with Oleic acid or Linoleic acid | inhibition of SARS-CoV-2-PP infection
1 | CCCCCCCCCCCCCCCC(=O)O [palmitic acid] | a difference between the Brazil variant and the other variants | strongest inhibition on the Delta variant | good inhibitor
2 | CC1=CC(=O)C(C(C)C)=CC1=O [thymoquinone] | – | – | good inhibitor
